The results in this text go back to PubChem BioAssay (NCI).

Molecules are shown by their SMILES. “And” between values parts separate entries of the source, which are not always exact repeats. Identical values can stand only once.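 Cultured in 96-well plates, cells were exposed to test compound for 48 hours across five concentrations. GI50 = concentration required for 50% inhibition of growth. TGI denotes the concentration required for complete inhibition of growth.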

Test systems include 786-0 renal; BT-549 breast; CAKI-1 renal; EKVX NSCLC; HCT-15 colon; HL-60(TB) leukemia; HT29 colon; OVCAR-3 ovarian; SF-268 CNS; SF-295 CNS; SN12C renal; SW-620 colon.
Assay in all cases: NCI-60 cell line screen, 48 h

`O=C(/C(=C\I)c1ccccc1)c1ccccc1`: the TGI in the test on 786-0 renal was determined as 14.6 µM; in the test on BT-549 breast, 30.3 µM; in the test on CAKI-1 renal it was 3.07 µM; in the test on EKVX NSCLC it was 32.3 µM; in the test on HCT-15 colon, 9.37 µM; in the test on HL-60(TB) leukemia, 2.57 µM. The TGI in the test on HT29 colon was 4.95 µM; with OVCAR-3 ovarian, 5.71 µM; with SF-268 CNS, over 46.2 µM; in the test on SF-295 CNS, 32.9 µM; in the test with SN12C renal, 34.9 µM; in the test on SW-620 colon, 9.93 µM.
Consider `O=C1CSC(c2cccc(Cl)c2)N1c1ccc(-c2ccc(-n3c(-c4ccccc4)nc4ccccc4c3=O)cc2)cc1` (stereo not given), for which the TGI with 786-0 renal is over 100 µM; in the test with BT-549 breast it was 80.3 µM; in the test with CAKI-1 renal, over 100 µM; with EKVX NSCLC, over 100 µM; in the test on HCT-15 colon it was over 100 µM; in the test on HL-60(TB) leukemia it was over 100 µM. In addition, the TGI with HT29 colon, in the test on OVCAR-3 ovarian, with SF-268 CNS, in the test with SF-295 CNS, in the test on SN12C renal and in the test with SW-620 colon was over 100 µM each time.
As for `Br[C@@H]1[C@H]2c3nc4ccccc4nc3[C@@H]1C[C@H]2Br`, the TGI in the test on 786-0 renal, with BT-549 breast, with CAKI-1 renal, with EKVX NSCLC, in the test on HCT-15 colon and in the test on HL-60(TB) leukemia was over 100 µM each time. Also, the TGI in the test with HT29 colon, with OVCAR-3 ovarian, in the test with SF-268 CNS, in the test on SF-295 CNS, with SN12C renal and with SW-620 colon was over 100 µM each time.
With `COc1cc2c(/C=C3/C(=O)N(C)c4ccc(O)cc43)c(Cl)[nH]c2cc1C`, the TGI in the test with 786-0 renal was found to be 15 µM; in the test with BT-549 breast it was 15.8 µM; with CAKI-1 renal it was 13.6 µM; in the test on EKVX NSCLC, 23.9 µM; in the test on HCT-15 colon, 12.8 µM; in the test with HL-60(TB) leukemia, 3.02 µM. For the same compound, the TGI was 46.7 µM in the test on HT29 colon; 0.597 µM in the test on OVCAR-3 ovarian; 25.3 µM in the test with SF-268 CNS; 2.93 µM in the test with SF-295 CNS; 17 µM in the test with SN12C renal; 21.3 µM in the test on SW-620 colon.
`CCN1CCC(CNC(=O)c2ccc(N)cc2)N1CC` (stereo not given): the TGI in the test with 786-0 renal, in the test with BT-549 breast, in the test with CAKI-1 renal, in the test on EKVX NSCLC, in the test on HCT-15 colon and in the test on HL-60(TB) leukemia was over 100 µM in each case. Moreover, the TGI in the test on HT29 colon, in the test on OVCAR-3 ovarian, with SF-268 CNS, with SF-295 CNS, with SN12C renal and with SW-620 colon was over 100 µM in each case.
As for `CC(=O)OCC1OC(n2c(S)c(C#N)c(-c3ccccc3)c(C#N)c2=O)C(OC(C)=O)C(OC(C)=O)C1OC(C)=O` (stereo not given), the TGI with 786-0 renal is > 100 µM and 83.4 µM; in the test on BT-549 breast it was > 100 µM and 59.1 µM; with CAKI-1 renal it was over 100 µM; in the test on EKVX NSCLC, > 100 µM and 76.1 µM; with HCT-15 colon, over 100 µM; in the test with HL-60(TB) leukemia it was > 100 µM and 35.5 µM. In addition, the TGI with HT29 colon was > 100 µM and 52.8 µM; with OVCAR-3 ovarian, > 100 µM and 36.9 µM; in the test with SF-268 CNS, > 100 µM and 61.7 µM; with SF-295 CNS it was over 100 µM; in the test on SN12C renal it was > 100 µM and 81.7 µM; in the test on SW-620 colon it was over 100 µM. Further, the GI50 is > 66.8 µM and 21.1 µM in the test with BT-549 breast; > 100 µM and 25.1 µM in the test with EKVX NSCLC; > 100 µM and 17.4 µM in the test with HL-60(TB) leukemia; > 100 µM and 24.3 µM with HT29 colon; > 100 µM and 19.5 µM with OVCAR-3 ovarian; 29.4 µM and > 100 µM in the test with SF-295 CNS. Moreover, the GI50 in the test with SN12C renal was > 100 µM and 25.2 µM; in the test with SW-620 colon it was > 100 µM and 49.9 µM.
Turning to `CC(Oc1ccccc1)C(=O)NNC(=O)OC(C)(C)C` (stereo not given), the TGI with 786-0 renal, in the test with BT-549 breast, with CAKI-1 renal, in the test with EKVX NSCLC, with HCT-15 colon and in the test on HL-60(TB) leukemia was over 100 µM throughout. Also, the TGI in the test with HT29 colon, in the test with OVCAR-3 ovarian, with SF-268 CNS, in the test on SF-295 CNS, in the test with SN12C renal and with SW-620 colon was over 100 µM in each case.
Regarding `CCOC(=O)/C=C(\C(=O)OCC)n1cc(C)c(=O)n(Cc2cnnn2COCCOC(C)=O)c1=O`, the TGI worked out at 14.9 µM in the test on 786-0 renal; 16.3 µM in the test on BT-549 breast; 8.06 µM in the test on CAKI-1 renal; 24.6 µM with EKVX NSCLC; 12 µM in the test with HCT-15 colon; 12.7 µM with HL-60(TB) leukemia. The TGI in the test on HT29 colon is 21.2 µM; with OVCAR-3 ovarian it was 26 µM; with SF-268 CNS, 38.5 µM; with SF-295 CNS, 69.3 µM; in the test on SN12C renal, 36.2 µM; in the test with SW-620 colon, 9.92 µM.
On to `Cc1ccc2nc(-c3ccc(C(C)(C)C)cc3)oc(=O)c2c1`, for which the TGI with 786-0 renal is 68.2 µM; in the test on BT-549 breast it was 57.3 µM; in the test on CAKI-1 renal it was 39.6 µM; in the test on EKVX NSCLC, 69.8 µM; in the test with HCT-15 colon, 54 µM; in the test with HL-60(TB) leukemia, 40 µM. For the same compound, the TGI is 38.3 µM with HT29 colon; 60.9 µM in the test on OVCAR-3 ovarian; 70.7 µM in the test with SF-268 CNS; 49 µM in the test on SF-295 CNS; over 100 µM in the test with SN12C renal; over 100 µM in the test with SW-620 colon.
`C=C(Cl)C(Cl)(CCl)CCC(Br)C(C)(C)Br` (stereo not given): the TGI with 786-0 renal, with BT-549 breast, in the test with CAKI-1 renal, in the test with EKVX NSCLC, with HCT-15 colon and in the test with HL-60(TB) leukemia was over 10 µM in each case. The TGI with HT29 colon, in the test on OVCAR-3 ovarian, in the test with SF-268 CNS, in the test with SF-295 CNS, with SN12C renal and in the test on SW-620 colon was over 10 µM throughout.
For `O=c1c(Cc2ccc(Cl)cc2)nnc2sc(-c3ccc(-c4ccc(Cl)cc4Cl)o3)nn12`, the TGI with 786-0 renal, in the test on BT-549 breast, in the test with CAKI-1 renal, with EKVX NSCLC, in the test with HCT-15 colon and in the test with HL-60(TB) leukemia was over 100 µM in each case. The TGI in the test with HT29 colon, with OVCAR-3 ovarian, in the test on SF-268 CNS, with SF-295 CNS, in the test on SN12C renal and in the test with SW-620 colon was over 100 µM in each case.
As for `O=C1C(c2c(O)[nH]c3ccc(Br)cc23)=Nc2ccc(Br)cc21`, the TGI was 46.9 µM in the test on 786-0 renal; over 100 µM in the test with BT-549 breast; over 100 µM in the test on CAKI-1 renal; over 100 µM in the test on EKVX NSCLC; over 100 µM in the test with HCT-15 colon; over 100 µM in the test with HL-60(TB) leukemia. In addition, the TGI in the test on HT29 colon, with OVCAR-3 ovarian, in the test with SF-268 CNS, with SF-295 CNS, with SN12C renal and with SW-620 colon was over 100 µM each time.
On to `CC1OC(OC2C(O[C@H]3CC[C@@]4(C)C(=CC[C@H]5[C@@H]6C[C@@H]7O[C@]8(CC[C@@H](C)CO8)[C@@H](C)[C@@H]7[C@@]6(C)CC[C@@H]54)C3)OC(CO)C(O)C2O)C(O)C(O)C1O` (stereo not given in full), for which the TGI with 786-0 renal is 2.37 µM; with BT-549 breast, 8.31 µM; with CAKI-1 renal, 3.54 µM; in the test on EKVX NSCLC it was 6.47 µM; in the test on HCT-15 colon, 5.21 µM; in the test on HL-60(TB) leukemia, 2.87 µM. Further, the TGI in the test with HT29 colon stood at 2.37 µM; in the test on OVCAR-3 ovarian, 6.65 µM; in the test with SF-268 CNS it was 5.46 µM; in the test with SF-295 CNS, 2.44 µM; in the test with SN12C renal it was 3.27 µM; in the test with SW-620 colon, 2.31 µM.
As for `NC(Cc1ccc2nc3c4ccccc4c(=O)cc-3oc2c1)C(=O)O` (stereo not given), the TGI with 786-0 renal, with BT-549 breast, in the test on CAKI-1 renal, in the test on EKVX NSCLC, with HCT-15 colon and in the test with HL-60(TB) leukemia was over 100 µM each time. Besides, the TGI in the test with HT29 colon, with OVCAR-3 ovarian, in the test with SF-268 CNS, in the test with SF-295 CNS, in the test with SN12C renal and in the test with SW-620 colon was over 100 µM in each case.
As for `CC(=O)OCC1OC(n2c(Br)nc3c2c(=O)n(C)c(=O)n3C)C(OC(C)=O)C1OC(C)=O` (stereo not given), the TGI was over 100 µM in the test with 786-0 renal; over 100 µM with BT-549 breast; over 100 µM with CAKI-1 renal; over 100 µM with EKVX NSCLC; over 100 µM in the test on HCT-15 colon; 57.9 µM with HL-60(TB) leukemia. Besides, the TGI with HT29 colon, with OVCAR-3 ovarian, in the test with SF-268 CNS, with SF-295 CNS, in the test with SN12C renal and with SW-620 colon was over 100 µM throughout.
As for `Cc1nc2sc(C(=O)c3ccc(Cl)cc3)c(N)c2c(-c2ccccc2Cl)c1C(=O)Nc1ccccc1`, the TGI was 27.6 µM in the test on 786-0 renal; 48 µM in the test with BT-549 breast; 36.8 µM in the test on CAKI-1 renal; 59 µM in the test on EKVX NSCLC; 43.5 µM in the test with HCT-15 colon; over 86.5 µM in the test on HL-60(TB) leukemia. The TGI in the test with HT29 colon is 31.3 µM; with OVCAR-3 ovarian, 33.9 µM; in the test on SF-268 CNS it was over 94.9 µM; in the test on SF-295 CNS, 47.9 µM; in the test with SN12C renal, 42.1 µM; in the test on SW-620 colon, 29.4 µM.
